Results: patent US5220002A, “Deacetylcolchicine derivatives” (Ohgen Research Laboratories, Ltd., priority 1990, dated 1993)
≈ marks a conversion by molar mass, not a printed value.

What was measured:
[1] = tested on: Adriamycin-resistant mouse leukemic cells P388/ADR; assay: In vitro tumor cell proliferation inhibiting test (Adriamycin-resistant mouse leukemic cells P388/ADR); assay type: cell-based; settings: 48 h, 2×10^5, RPMI 1640 with 10% bovine fetal serum, 2 days, read-out: 50% proliferation inhibitory concentration: IC50
Method: 2×10^5 Adriamycin-resistant mouse leukemic cells P388/ADR are suspended in a RPMI 1640 culture medium containing 10% of a bovine fetal serum, and cultured for 2 days in the presence of a test compound (the test compound is dissolved in dimethyl sulfoxide such that the concentration becomes 1 mg/ml, and this is diluted with a phosphate buffer solution). An influence on cell proliferation is investigated, and 50% proliferation inhibitory concentration: IC50 value (μg/ml) is determined.

[2] = tested on: Sarcoma 180 ascites tumor; assay: In vivo test on Sarcoma 180 ascites tumor transplanted mice; set-up: species or system mouse (ddY male); settings: once a day over 7 days; for Average number of survival days (mean ± SD): 6 mice per group; for Cured example: groups of 6 mice
Method: 1×10^6 Sarcoma 180 cells are transplanted in an abdominal cavity of each of 6-week old ddY male mice. Over 7 days after the first day of transplantation of tumor cells in groups each consisting of 6 mice, the test compound (which is dissolved in propyplene glycol and diluted with a phosphate buffer solution such that the final concentration of propylene glycol becomes 20% or less) is administered in the abdominal cavity once a day, and an average number of survival days and percent prolongation* are measured. [formula]

Sarcoma 180 solid tumor = assay: In vivo test on Sarcoma 180 solid tumor transplanted mice; set-up: species or system mouse (ddY female); settings: for Average tumor weight (mean ± SD, g): once a day over 10 days from 6th day, tumor taken out 30 days after transplantation; for Percent inhibition: tumor weight, 30 days after transplantation
Method: 2×10^6 Sarcoma 180 cells are transplanted subcutaneously in the back of each of 6-week old ddY female mice. Over 10 days from the 6th day after the tumor transplantation in groups each consisting of 6 mices, the test compound (which is dissolved in propylene glycol and diluted with a phosphate buffer solution such that the final concentration of propylene glycol becomes 20% or less) is continuously administered in the abdominal cavity once a day. Thirty days after the tumor transplantation, the tumor is taken out. Its weight is measured, and an average tumor weight and percent inhibition* are measured. [formula]

Acute toxicity test = assay: Acute toxicity test; set-up: species or system mouse (ddY male); settings: mouse, in vivo, mortality for 1 week, Litchfield-Wilcoxon method
Method: The test compound is administered to each 5-week old ddY male mouse, and mortality is observed for 1 week. A 50% lethal dose (LD50) is calculated from the number of mice died in each group by a Litchfield-Wilcoxon method. The test compound (compound (a)) is suspended in 10% propylene glycol. Ten dilution gradients are prepared from the maximum concentration 80 mg/kg at a ratio of 1.2, and the test is carried out.

COc1cc2c(c(OC)c1OC)-c1ccc(OC)c(=O)cc1C(NC(=O)[C@@H]1COC(C)(C)O1)CC2 (stereo partly shown) [Compound 1a, Deacetylcolchicine-glyceric Acid Acetonideamide]
IC50 [1]: 0.036 µg/mL (≈ 0.0741 µM) | Percent prolongation ([2]; 0.31 mg/kg i.p.): 188% | Average number of survival days (mean ± SD) ([2]; 0.31 mg/kg i.p.): 36.0 ± 8.0 days | Percent prolongation ([2]; 0.63 mg/kg i.p.): 281% | Average number of survival days (mean ± SD) ([2]; 0.63 mg/kg i.p.): 47.7 ± 11.1 days | Cured example ([2]; 0.63 mg/kg i.p.): 1 | Percent prolongation ([2]; 1.25 mg/kg i.p.): 277% | Average number of survival days (mean ± SD) ([2]; 1.25 mg/kg i.p.): 47.2 ± 11.5 days | Cured example ([2]; 1.25 mg/kg i.p.): 2 | Percent prolongation ([2]; 2.5 mg/kg i.p.): 333% | Average number of survival days (mean ± SD) ([2]; 2.5 mg/kg i.p.): 54.2 ± 11.6 days | Cured example ([2]; 2.5 mg/kg i.p.): 4 | Average tumor weight (mean ± SD, g) (Sarcoma 180 solid tumor; 0.625 μg/kg i.p.): 0.71 ± 0.38 g | Percent inhibition (Sarcoma 180 solid tumor; 0.625 μg/kg i.p.): 49.6% | Average tumor weight (mean ± SD, g) (Sarcoma 180 solid tumor; 1.25 μg/kg i.p.): 0.88 ± 0.78 g | Percent inhibition (Sarcoma 180 solid tumor; 1.25 μg/kg i.p.): 47.6% | Average tumor weight (mean ± SD, g) (Sarcoma 180 solid tumor; 2.5 μg/kg i.p.): 0.63 ± 0.51 g | Percent inhibition (Sarcoma 180 solid tumor; 2.5 μg/kg i.p.): 55.3% | Average tumor weight (mean ± SD, g) (Sarcoma 180 solid tumor; 5.0 μg/kg i.p.): 0.60 ± 0.52 g | Percent inhibition (Sarcoma 180 solid tumor; 5.0 μg/kg i.p.): 57.4% | LD50 at 168 h (Acute toxicity test; ip, intraperitoneal): 42 mg/kg | LD50 at 168 h (Acute toxicity test; intravenous): 38 mg/kg

COc1cc2c(c(OC)c1OC)-c1ccc(OC)c(=O)cc1C(NC(=O)[C@H]1COC(C)(C)O1)CC2 (stereo partly shown) [Compound 1b, Deacetylcolchicine-glyceric Acid Acetonideamide]
IC50 [1]: 0.066 µg/mL (≈ 0.136 µM) | Percent prolongation ([2]; 1.25 mg/kg i.p.): 240% | Average number of survival days (mean ± SD) ([2]; 1.25 mg/kg i.p.): 42.5 ± 15.4 days | Cured example ([2]; 1.25 mg/kg i.p.): 1 | Percent prolongation ([2]; 2.5 mg/kg i.p.): 356% | Average number of survival days (mean ± SD) ([2]; 2.5 mg/kg i.p.): 57.0 ± 7.3 days | Cured example ([2]; 2.5 mg/kg i.p.): 5 | Percent prolongation ([2]; 5 mg/kg i.p.): 356% | Average number of survival days (mean ± SD) ([2]; 5 mg/kg i.p.): 57.0 ± 5.3 days | Cured example ([2]; 5 mg/kg i.p.): 4

COc1cc2c(c(OC)c1OC)-c1ccc(OC)c(=O)cc1C(NC(=O)[C@H]1O[C@H](OC(C)=O)[C@H](O)[C@@H](O)[C@@H]1OC(C)=O)CC2 (stereo partly shown) [Compound 4, Deacetylcolchicine-glucuronic acid diacetateamide]
IC50 [1]: 0.034 µg/mL

COc1cc2c(c(OC)c1OC)-c1ccc(OC)c(=O)cc1C(NC(=O)[C@H]1O[C@H](O)[C@H](O)[C@@H](O)[C@@H]1O)CC2 (stereo partly shown) [Compound 5, N-(5,6,7,9-tetrahydro-1,2,3,10-tetramethoxy-9-oxobenzo[a]heptalen-7-yl)glucuroneamide]
IC50 [1]: 0.037 µg/mL (≈ 0.0693 µM)
